pIC50: −log10 of the molar value.
Key:
OVCAR3 p-RB = experiment: pRB ICW assay in OVCAR3 cells; assay type: cell-based; settings: Homo sapiens, OVCAR-3, incubated with compound for 2 hours
Method: pRB ICW Assay in OVCAR3 Cells
OVCAR3 cells were maintained in RPMI (Corning, Catalog #: 10-040-CV) supplemented with 10% v/v FBS (Gibco, Catalog #: 26140-079), 1% v/v Penicillin Streptomycin (Gibco, Catalog #15140-122.) OVCAR3 cells grown at log phase were trypsinized, counted, and resuspended in fresh medium to reach a final density of 6.7e4 cells/mL and 75 μL of culture were dispensed into a 384-well plate (Falcon, cat #353962) using Multidrop Combi dispenser (Thermo Scientific). The next day, compounds were dispensed as a 9-point, ½ log serial dilution using a Tecan digital dispenser (D300e), and cells were incubated with compound for 2 hours in a humidified incubator at 37° C. A reference compound at a final concentration of 10 μM was used as a control for maximum inhibition. Each compound was tested in duplicates in each experiment. At the end of the incubation, 25 μL of 16% paraformaldehyde (Electron Microscopy, cat #15710) was slowly added to each well and the plate was incubated at room temperature (RT) for 30 minutes to fix cells. Cells were then permeabilized by incubating with 50 μL/well of wash buffer (lx PBS with 0.1% Triton X-100) 5×5 minutes, followed by 1 hour blocking with 30 μL/well of Odyssey blocking buffer (Li-COR, cat #927-40000), all at RT. Anti-phosphor RB antibody (Cell signaling 8516S) was diluted 1:1000 in Odyssey blocking buffer and 20 μL was added to all wells and incubated overnight in 4° C. with gently rocking. The next day, cells were washed 5×5 min with 50 μL/well of wash buffer, followed with 1 hour incubation with secondary antibody and DRAQ5 diluted in Odyssey blocking buffer (1:500 dilution for secondary antibody and 1:2000 dilution for DRAQ5), 5×5 min washes, and one last wash with water. Plates were dried in 37° C. oven for 5 min and scanned using Li-COR Odyssey CLx imaging system to acquire intensities at 700 and 800 nm channels.

CDK2/Cyclin E2 = CDK2/Cyclin E2 (Homo sapiens, UniProt P24941); experiment: CDK2/CyclinE2 enzymatic activity assay (TR-FRET); assay type: biochemical; settings: ATP 1 mM final, read-out: CDK2_E1 IC50
Method: CDK2/CyclinE2 Enzymatic Activity Assay
(§1) The inhibitory activity of compounds was evaluated in vitro using TR-FRET assay with white 384-well low volume microplate (Greiner Bio-One). CDK2/Cyclin E2 catalyzed phosphorylation of peptide in the presence and absence of compounds was measured and used in IC50 determination. Recombinant protein complex CDK2/Cyclin E2, expressed from insect cell, was purchased from ProQinase. Testing compounds were dissolved in DMSO at 1 mM and tested in 9-dose IC50 mode. The reaction mixture was prepared by mixing CDK2/CyclinE2 (1 nM final), ULight-4E-BP1 (50 nM final, Perkinelmer, TRF0128-D), and ATP (1 mM final) in assay buffer (20 mM of HEPES pH 7.4, 1 mM of EGTA, 0.05% BSA, 0.005% Tween 20, and 1 mM TCEP). The compound of interest in DMSO was added to each well in 3-fold serial dilution by dispenser (TECAN D300E) to make a 9.9 μL of reaction mixture. After 20 minutes preincubation at room temperature, 0.1 μL MgCl2 (10 mM final) was added to initiate the reaction. Following a 45 minute incubation at 37° C., the reaction was stopped by addition of 2 μL of quenching buffer consisting of Lance detection buffer (Perkinelmer CR97-100C), LANCE Ultra Europium-anti-P-4E-BP1 (Perkinelmer, TRF0216-D), EDTA, and incubate at room temperature for an additional 60 minutes in the dark. The reaction signal was measured by Envision multimode plate reader (PerkinElmer, 2102-0010). IC50 values were determined by fitting the data to the standard 4 parameters with Hill Slope using GraphPad Prism software.

CDK4/Cyclin D1 = target: T1, CDK4/Cyclin D1 (Homo sapiens, UniProt P11802); experiment: CDK4/CyclinD1 enzymatic activity assay (TR-FRET); assay type: biochemical; settings: ATP 2 mM final, read-out: CDK4_D1 IC50
T1 construct: purchased ProQinase; host or cells: insect cell
T1 sequence (P11802 whole entry): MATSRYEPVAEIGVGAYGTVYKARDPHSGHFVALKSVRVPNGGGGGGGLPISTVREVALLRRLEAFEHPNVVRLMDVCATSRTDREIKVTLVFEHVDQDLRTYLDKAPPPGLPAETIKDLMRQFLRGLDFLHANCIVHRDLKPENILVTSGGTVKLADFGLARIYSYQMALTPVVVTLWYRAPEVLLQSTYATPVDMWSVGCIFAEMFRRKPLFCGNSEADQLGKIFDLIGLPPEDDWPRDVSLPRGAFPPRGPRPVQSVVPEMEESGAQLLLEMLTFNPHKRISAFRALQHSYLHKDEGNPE
T1 sequence (P24385 whole entry partner): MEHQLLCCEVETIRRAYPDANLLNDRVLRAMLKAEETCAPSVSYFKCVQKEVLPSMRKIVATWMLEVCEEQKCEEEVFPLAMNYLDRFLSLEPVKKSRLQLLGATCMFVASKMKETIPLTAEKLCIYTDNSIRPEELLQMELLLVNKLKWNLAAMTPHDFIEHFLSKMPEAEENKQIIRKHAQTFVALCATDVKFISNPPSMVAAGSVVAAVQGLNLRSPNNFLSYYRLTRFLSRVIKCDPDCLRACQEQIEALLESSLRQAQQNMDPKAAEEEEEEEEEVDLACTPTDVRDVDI
Method: CDK4/CyclinD1 Enzymatic Activity Assay
as §1, with “Bio-One). CDK4/Cyclin D1” for “Bio-One). CDK2/Cyclin E2”, “in IC5” for “in IC50”, “complex CDK4/Cyclin D1,” for “complex CDK2/Cyclin E2,”, “mixing CDK4/CyclinD1” for “mixing CDK2/CyclinE2”, “ULight-4E-BP1 (100” for “ULight-4E-BP1 (50”, “ATP (2” for “ATP (1”

pIC50 (OVCAR3 p-RB)	pIC50 (CDK2/Cyclin E2)	pIC50 (CDK4/Cyclin D1)	SMILES
≥ 7.00	≥ 7.00	≥ 7.00	CC(O)c1ncc(-c2nc(NC3CCN(S(=O)(=O)c4ccsc4)CC3)ncc2C(F)(F)F)s1 (centres unmarked) [Example 85, 1-(5-(2-((1-(thiophen-3-ylsulfonyl)piperidin-4-yl)amino)-5-(trifluoromethyl)pyrimidin-4-yl)thiazol-2-yl)ethan-1-ol]
6.00 to 7.00	≥ 7.00	≥ 7.00	Cc1ncc(-c2nc(NC3CCN(S(=O)(=O)c4cnn(C)c4)CC3)ncc2C(F)(F)F)s1 [Example 60, N-[1-(1-Methylpyrazol-4-yl)sulfonylpiperidin-4-yl]-4-(2-methyl-1,3-thiazol-5-yl)-5-(trifluoromethyl)pyrimidin-2-amine]
< 6.00	6.00 to 7.00	6.00 to 7.00	CC(O)c1ncc(-c2nc(N[C@@H]3CCN(S(=O)(=O)c4cnn(C)c4)C[C@@H]3F)ncc2C(F)(F)F)s1 (stereo partly drawn) [Example 97, 1-(5-(2-(((3S,4R)-3-fluoro-1-((1-methyl-1H-pyrazol-4-yl)sulfonyl)piperidin-4-yl)amino)-5-(trifluoromethyl)pyrimidin-4-yl)thiazol-2-yl)ethan-1-ol]
6.00 to 7.00	≥ 7.00	≥ 7.00	CN1CCN(CCCS(=O)(=O)N2CCC(Nc3ncc(C(F)(F)F)c(-c4cnc(CC(C)(C)O)s4)n3)CC2)CC1 [Example 80, 2-methyl-1-(5-(2-((1-((3-(4-methylpiperazin-1-yl)propyl)sulfonyl)piperidin-4-yl)amino)-5-(trifluoromethyl)pyrimidin-4-yl)thiazol-2-yl)propan-2-ol]
6.00 to 7.00	≥ 7.00	≥ 7.00	Cc1ncc(-c2nc(N[C@@H]3CCN(S(=O)(=O)c4cnn(C)c4)C[C@H]3F)ncc2C(F)(F)F)s1 [Example 93, N-((3R,4R)-3-fluoro-1-((1-methyl-1H-pyrazol-4-yl)sulfonyl)piperidin-4-yl)-4-(2-methylthiazol-5-yl)-5-(trifluoromethyl)pyrimidin-2-amine]
< 6.00	≥ 7.00	6.00 to 7.00	CC(O)c1ncc(-c2nc(N[C@H]3CCN(S(=O)(=O)c4cnc(N)s4)C[C@H]3C)ncc2C(F)(F)F)s1 (stereo partly drawn) [Example 103, 1-(5-(2-(((3R,4S)-1-((2-aminothiazol-5-yl)sulfonyl)-3-methylpiperidin-4-yl)amino)-5-(trifluoromethyl)pyrimidin-4-yl)thiazol-2-yl)ethan-1-ol]
	6.00 to 7.00	< 6.00	CC(C)NC(=O)Nc1ncc(-c2nc(NC3CCN(S(C)(=O)=O)CC3)ncc2C(F)(F)F)s1 [Example 56, 1-[5-[2-[(1-Methylsulfonylpiperidin-4-yl)amino]-5-(trifluoromethyl)pyrimidin-4-yl]-1,3-thiazol-2-yl]-3-propan-2-ylurea]
	≥ 7.00	6.00 to 7.00	COCc1ncc(-c2nc(NC3CCN(S(C)(=O)=O)CC3)ncc2C(F)(F)F)s1 [Example 53, 4-[2-(Methoxymethyl)-1,3-thiazol-5-yl]-N-(1-methylsulfonylpiperidin-4-yl)-5-(trifluoromethyl)pyrimidin-2-amine]
	6.00 to 7.00	< 6.00	Cc1ncc(-c2nc(NC3CCN(S(C)(=O)=O)CC3)ncc2C(F)(F)F)o1 [Example 66, 4-(2-methyl-1,3-oxazol-5-yl)-N-(1-methylsulfonylpiperidin-4-yl)-5-(trifluoromethyl)pyrimidin-2-amine]
	6.00 to 7.00	6.00 to 7.00	CCOc1ncc(-c2nc(NC3CCN(S(C)(=O)=O)CC3)ncc2C(F)F)s1 [Example 49, 5-(Difluoromethyl)-4-(2-ethoxy-1,3-thiazol-5-yl)-N-(1-methylsulfonylpiperidin-4-yl)pyrimidin-2-amine]
	≥ 7.00	6.00 to 7.00	Cc1ncc(-c2nc(NC3CCN(S(C)(=O)=O)CC3)ncc2C(F)F)s1 [Example 43, 5-(Difluoromethyl)-N-(1-methylsulfonylpiperidin-4-yl)-4-(2-methyl-1,3-thiazol-5-yl)pyrimidin-2-amine]
	≥ 7.00		CS(=O)(=O)N1CCC(Nc2ncc(C(F)(F)F)c(-c3cnc(-c4ccccc4CO)s3)n2)CC1 [Example 23, [2-[5-[2-[(1-Methylsulfonylpiperidin-4-yl)amino]-5-(trifluoromethyl)pyrimidin-4-yl]-1,3-thiazol-2-yl]phenyl]methanol]
	6.00 to 7.00	< 6.00	Cc1nc(C)c(-c2nc(NC3CCN(S(C)(=O)=O)CC3)ncc2F)s1 [Example 16, 4-(2,4-dimethylthiazol-5-yl)-5-fluoro-N-(1-(methylsulfonyl)piperidin-4-yl)pyrimidin-2-amine]
	≥ 7.00	6.00 to 7.00	Cc1c(-c2ncc(-c3nc(NC4CCN(S(C)(=O)=O)CC4)ncc3C(F)(F)F)s2)cnn1CCO [Example 18, 2-[5-methyl-4-[5-[2-[(1-methylsulfonylpiperidin-4-yl)amino]-5-(trifluoromethyl)pyrimidin-4-yl]-1,3-thiazol-2-yl]pyrazol-1-yl]ethanol]
	≥ 7.00	6.00 to 7.00	COc1ncc(-c2nc(NC3CCN(S(C)(=O)=O)CC3)ncc2C(F)F)s1 [Example 50, 5-(difluoromethyl)-4-(2-methoxy-1,3-thiazol-5-yl)-N-(1-methylsulfonyl-piperidin-4-yl)pyrimidin-2-amine]
	6.00 to 7.00	< 6.00	CCOC(=O)Nc1ncc(-c2nc(NC3CCN(S(C)(=O)=O)CC3)ncc2C(F)(F)F)s1 [Example 55, Ethyl N-[5-[2-[(1-methylsulfonylpiperidin-4-yl)amino]-5-(trifluoromethyl)pyrimidin-4-yl]-1,3-thiazol-2-yl]carbamate]
	≥ 7.00	≥ 7.00	CS(=O)(=O)N1CCC(Nc2ncc(C(F)(F)F)c(-c3cnc(C4CCCC4)s3)n2)CC1 [Example 5, 4-(2-Cyclopentyl-1,3-thiazol-5-yl)-N-(1-methylsulfonylpiperidin-4-yl)-5-(trifluoromethyl)pyrimidin-2-amine]
	≥ 7.00	≥ 7.00	CC(C)Oc1ncc(-c2nc(NC3CCN(S(C)(=O)=O)CC3)ncc2C(F)F)s1 [Example 51, 5-(Difluoromethyl)-N-(1-methylsulfonylpiperidin-4-yl)-4-(2-propan-2-yloxy-1,3-thiazol-5-yl)pyrimidin-2-amine]
